Consider one compound from patent US6172205A, “Synthetic process toward total synthesis of eleutherobin and its analogues and uses thereof” (The Trustees of Columbia in the City of New York, priority 1998, dated 2001).

“Also recorded” adds a separate entry of the source.

One data set concerns microtubule protein. Put plainly: Stability of microtubules against Ca++-induced depolymerization. It counts as biochemical, calf. To be noted: 10 mM CaCl2. The protocol:
Eleutherobin and its derivatives were synthesized as described (18,19). Taxol was obtained from the Drug Development Branch, National Cancer Institute (Bethesda, Md.). All compounds were dissolved in dimethyl sulfoxide (Sigma Chemical Co., St. Louis, Mo.) at stock concentrations of 5 mM and stored at -20° C. All control samples contained an equal volume of DMSO. GTP was obtained from Sigma Chemical Co. And dissolved in sterile distilled water at a concentration of 10 mM and stored at -20° C. Microtubule protein was purified from calf brains by two cycles of temperature-dependent assembly and disassembly (20) and stored in liquid nitrogen prior to use. The anti-mouse β-tubulin monoclonal antibody T-4026 was obtained from Sigma Chemical Co.
The ability of each compound to polymerize tubulin was evaluated by recording the change in turbidity of microtubule protein at 350 nm for 80 min in a spectrophotometer (UVIKON, Research Instruments Int., SD, Calif.). One mg of purified microtubule protein was diluted in assembly buffer containing 0.1 M MES, 1 mM EGTA, 0.5 mM MgCl2 and 3 M glycerol, pH 6.6. All compounds were evaluated at a concentration of 10 μM at 37° C. GTP was used at a final concentration of 1 mM. Microtubule stability was assessed by the addition of 10 mM Ca^++. changes from t=0-10 min were used to calculate initial slopes from the linear portion of each curve. These values were used to calculate the activity of each compound (relative to the activity of Taxol which was assigned a value of 100%).
The ability of each compound to polymerize and/or stabilize microtubules was assessed (FIG. 7). To investigate whether eleutherobin and its derivatives shared the microtubule stabilizing properties of Taxol, 10 mM CaCl2 was added to each sample after maximum microtubule polymerization occurred, and the effects on turbidity recorded spectrophotometrically. A positive control was included in which 1 mM GTP was used to confirm the ability of GTP-stabilized microtubules to undergo Ca^++ induced depolymerization.
The ability of this compound to stabilize microtubules formed in the presence of GTP was examined. After a period of 15 min, 10 mM Ca^++ was added and the change in turbidity recorded.

The subject of a further data set is tumor cell lines. The note with it: variety of tumor cell lines; cited from earlier work.
The test system of data set [1] is Human ovarian carcinoma cells SKOV3. Briefly: Cytotoxicity by counting cells after 72 h, Taxol-sensitive cells. It is filed as cell-based. The note with it: SK-OV-3, 72 h. The protocol: (§1) Human non-small cell lung carcinoma cells, A549, were maintained in RPMI 1640 containing 10% fetal bovine serum and 1% penicillin-streptomycin (Gibco Laboratories, Grand Island N.Y.) at 37° C. in 7% CO2. The Taxol-resistant cell line A549-T12 was selected for resistance to Taxol and maintained in a final concentration of 12 nM drug (21). Human ovarian carcinoma cells SKOV3 and the MDR variant SKVBL (obtained from Dr. V. Ling) were maintained in α-mem plus ribonucleotides, deoxynucleotides, 15% fetal bovine serum and 1% penicillin-streptomycin (Gibco Laboratories) at 37° C. in 5% CO2. SKVBL cells were maintained in […] vinblastine (Sigma Chemical Co.).
(§2) Taxol-resistant and sensitive cell lines were seeded into 12-well plates at a density of 5×10^4 cells per well and allowed a period of 12 h for attachment prior to treatment. Cells were exposed to 10-fold serial dilutions of each compound (10^-10 to 10^-6 M) for 72 h. Cells were then trypsinized and counted (Coulter counter model ZF0031, Coulter Corp., Miami, Fla.). The IC50 was determined by plotting cell number against log of the drug concentration and this was used to determine the concentration of compound resulting in 50% growth inhibition compared to untreated cells. Each cell line was assayed in a minimum of 3 independent experiments with each compound and the results expressed as the mean IC50.
(§3) ^a Cytotoxicity determined by counting cells after 72 h drug exposure.

For data set [2], the system named is A549-T12 (Taxol-resistant A549). Put plainly: Cytotoxicity by counting cells after 72 h, Taxol-resistant cells. It is filed as cell-based, human. The protocol: as §1, §2
(§4) The cytotoxic efficacy of eleutherobin and its derivatives (FIG. 6) was evaluated in two drug sensitive human cancer cell lines and their Taxol-resistant counterparts. The results are summarized in Table I in order of decreasing potency. […] The Taxol-resistant cell line SKVBL overexpresses high levels of P-glycoprotein (22). […] The only difference between the two agents is the enantiomeric relationship in the carbohydrate (2'-acetylarabinose) sector (FIG. 6). […] This cell line expressed high levels of MDR1 resulting in Taxol-resistance equal or greater than 1666 -fold compared to the Taxol-sensitive SKOV3 cell line.
as §3

Data set [3] has as its system SKVBL (MDR variant of SKOV3). Briefly: Cytotoxicity by counting cells after 72 h, MDR variant cells. It is filed as cell-based, human. The protocol: as §1, §2, §4, §3
The test system of another data set is P-glycoprotein. Put plainly: P-glycoprotein substrate behaviour inferred from resistance of SKVBL cells. It is filed as cell-based, human. As for the experimental part: as §1, §2, §4
The test system of data set [4] is MDR1 expressing cell line derived from human colon carcinoma HCT 116 cells. The note with it: cited from earlier work.
In data set [5] the test system is Human non-small cell lung carcinoma cells, A549. Briefly: Cytotoxicity by counting cells after 72 h, Taxol-sensitive cells. It counts as cell-based. The protocol:
Taxol-resistant and sensitive cell lines were seeded into 12-well plates at a density of 5×10^4 cells per well and allowed a period of 12 h for attachment prior to treatment. […] Cells were then trypsinized and counted (Coulter counter model ZF0031, Coulter Corp., Miami, Fla.).

What is called IC50 is the concentration needed to halve the response being measured. A higher IC50 goes with weaker potency.

On to `CO[C@]12C=C[C@](C)(O1)[C@@H](OC(=O)/C=C/c1cn(C)cn1)C[C@H]1C(C)=CC[C@H](C(C)C)[C@H]1/C=C\2CO[C@@H]1OC[C@@H](O)[C@@H](O)[C@@H]1OC(C)=O` [Eleutherobin], for which the “stabilization against Ca++-induced depolymerization (in words)” value in the data set on microtubule protein is listed as “stabilized microtubules against Ca^++ -induced depolymerization”. Besides, in the data set with tumor cell lines, the “potency in tumor cell lines (in words)” value is “excellent potency in a variety of tumor cell lines”. The IC50 in data set [1] was 9.5 nM; in data set [2] (Homo sapiens, Lung Carcinoma A549, Resistant (A549-T12), 72 h, mean of at least three independent experiments), 12.2 nM; in data set [3] (Homo sapiens, SK-OV-3, Ovarian Carcinoma SKOV3, Resistant (SKVBL), 72 h, mean of at least three independent experiments), more than 1000 nM; in data set [5] (Homo sapiens, A549, 72 h) it was 6 nM. Besides, the “fold resistance relative to the parental cell line” value in data set [2] (A549-T12 vs A549, 4320 min) was 1.9 fold; in data set [3] (SKVBL vs SKOV3), not below 1052 fold. Further, the “cross-resistance in A549-T12 (in words)” value in data set [2] (Taxol-resistant, not expressing P-glycoprotein) is listed as “neither eleutherobin nor neo-eleutherobin displayed cross-resistance; also recorded: neither of these compounds showed cross-resistance”. Besides, in data set [3] (MDR1 expressing cells, high P-glycoprotein), the “cross-resistance in SKVBL (in words)” value is on record as “exhibited cross-resistance in an MDR1 expressing cell line; also recorded: demonstrated cross-resistance”. In the data set with P-glycoprotein, the “P-glycoprotein substrate (in words)” value was “excellent substrates for P-glycoprotein”. For the same compound, the “cross-resistance in MDR1 expressing HCT 116-derived cells (in words)” value in data set [4] is “demonstrated cross-resistance in an MDR1 expressing cell line”. Further, in data set [5] (both sensitive cell lines (A549, SKOV3)), the “fold less potent than Taxol” value was found to be 3 fold. In addition, the “cytotoxicity (in words)” value in data set [5] (sensitive cell lines (A549, SKOV3)) was “IC50 value comparable at Taxol; also recorded: within the nM range”.
